≈ marks a conversion by molar mass, not a printed value. Read-outs that look alike come from different tables or passages of the source.
Assays:
Type in all cases: physicochemical
[1] = Dynamic Vapor Sorption (DVS) of free base
Experimental: Samples (˜10 mg) were transferred into a DVS instrument and recorded the weight change with respect to the atmospheric humidity at 25° C. using the following parameters: • Equilibrium: dm/dt: 0.01%/min. (for min: 10 min and max: 180 min). • Drying: 0% RH for 120 min • RH (%) measurement step: 10% • RH (%) measurement step scope: 0-90-0% (6) Proton Nuclear Magnetic Resonance (1H NMR) • 400 MHz Bruker with DMSO-d6 or MeOH-d4 solvents • Temperature: 27° C.
(1S,2S)-2-fluoro-N-(6-(4-methylpyridin-3-yl)benzo[d]thiazol-2-yl)cyclopropane-1-carboxamide free base appears as light yellow powder. Subsequently, the physical and thermal properties of free base were characterized. […] This free base form was named as Pattern A.

[2] = Solubility test of free base in bio-relevant media and buffers; conditions: for solubility at 24 h: thermodynamic from solid
Experimental: About 5 mg starting free base were weighed in 2 mL vials. Then 1.0 mL biorelevant media (SGF, FaSSIF and FeSSIF) and buffers were added into the vials. All the vials were placed on the thermo-mixer and kept at 37° C. (700 r/m in). After shaking at 37° C. for 24 hrs, mother liquids obtained by filtration were analyzed by HPLC directly or after being diluted by ACN/water for 20-40 times.

[3] = Solubility test of free base in solvents
Experimental: About 4 mg of (1S,2S)-2-fluoro-N-(6-(4-methylpyridin-3-yl)benzo[d]thiazol-2-yl)cyclopropane-1-carboxamide was weighed into a 2.0 mL glass vial and then selected solvents was added in the vial stepwise until all the solid was dissolved. The experiment was conducted by manual dilution combined with visual observation at 25° C. and 50° C. The total volume of solvent added was recorded.

## Cc1ccncc1-c1ccc2nc(NC(=O)[C@@H]3C[C@@H]3F)sc2c1 [free base, (1S,2S)-2-fluoro-N-(6-(4-methylpyridin-3-yl)benzo[d]thiazol-2-yl)cyclopropane-1-carboxamide]
[1]
  Hygroscopicity (DVS): Hygroscopic
[1]; 25° C., 80% RH
  DVS (ΔW %, 80% RH): 2.30%
[1]; XRPD, listed after DVS
  Form change (Yes/No, XRPD): (No)
[2]; FaSSIF, initial pH 6.52
  Final pH value: 6.50
[2]; FeSSIF, initial pH 5.07
  Final pH value: 5.09
[2]; SGF, initial pH 1.92
  Final pH value: 2.28
[2]; aqueous buffer, pH 2.0 buffer, initial pH 1.98, 37° C., 24 hrs
  solubility at 24 h: 2060 µg/mL (≈ 6.29 mM)
[2]; aqueous buffer, pH 4.0 buffer, initial pH 4.01, 37° C., 24 hrs
  solubility at 24 h: 31 µg/mL (≈ 0.0947 mM)
[2]; aqueous buffer, pH 6.0 buffer, initial pH 5.90, 37° C., 24 hrs
  solubility at 24 h: 2 µg/mL (≈ 0.00611 mM)
[2]; pH 2.0 buffer, initial pH 1.98
  Final pH value: 2.25
[2]; pH 4.0 buffer, initial pH 4.01
  Final pH value: 4.05
[2]; pH 6.0 buffer, initial pH 5.90
  Final pH value: 5.88
[2]; pH 8.0 buffer, initial pH 8.04
  Final pH value: 8.08
[2]; simulated gastric fluid, SGF, initial pH 1.92, 37° C., 24 hrs
  solubility at 24 h: 2490 µg/mL (≈ 7.61 mM)
[2]; simulated gastric fluid, in SGF and pH 2.0 buffer, 37° C., called medium solubility
  solubility at 24 h: 2000 to 2500 µg/mL (≈ 6.11 to 7.64 mM)
[2]; FeSSIF, initial pH 5.07, 37° C., 24 hrs
  solubility at 24 h: 45 µg/mL (≈ 0.137 mM)
[2]; water
  Final pH value: 8.84
[3]; aqueous with cosolvent or surfactant or cyclodextrin, thermodynamic from solid, Acetone/H2O (1/1, v/v), 25° C., read-out: Solubility
  solubility: < 5000 µg/mL
[3]; aqueous with cosolvent or surfactant or cyclodextrin, thermodynamic from solid, Acetone/H2O (1/1, v/v), 50° C., read-out: Solubility
  solubility: < 5000 µg/mL
[3]; aqueous with cosolvent or surfactant or cyclodextrin, thermodynamic from solid, EtOH/H2O (1/1, v/v), 25° C., read-out: Solubility
  solubility: < 5000 µg/mL
[3]; aqueous with cosolvent or surfactant or cyclodextrin, thermodynamic from solid, EtOH/H2O (1/1, v/v), 50° C., read-out: Solubility
  solubility: < 5000 µg/mL
[3]; in DMF and DMSO
  solubility: relatively high solubility
[3]; in mostly common use solvents
  solubility: relatively low solubility
[3]; organic solvent or mixture, thermodynamic from solid, 1,4-dioxane, 25° C., read-out: Solubility
  solubility: < 5000 µg/mL
[3]; organic solvent or mixture, thermodynamic from solid, 1,4-dioxane, 50° C., read-out: Solubility
  solubility: 7000 to 10000 µg/mL (≈ 21.4 to 30.5 mM)
[3]; organic solvent or mixture, thermodynamic from solid, 2-Propanol (IPA), 25° C., read-out: Solubility
  solubility: < 5000 µg/mL
[3]; organic solvent or mixture, thermodynamic from solid, 2-Propanol (IPA), 50° C., read-out: Solubility
  solubility: < 5000 µg/mL
[3]; organic solvent or mixture, thermodynamic from solid, Acetone, 25° C., read-out: Solubility
  solubility: < 5000 µg/mL
[3]; organic solvent or mixture, thermodynamic from solid, Acetone, 50° C., read-out: Solubility
  solubility: < 5000 µg/mL
[3]; organic solvent or mixture, thermodynamic from solid, Acetonitrile (ACN), 25° C., read-out: Solubility
  solubility: < 5000 µg/mL
[3]; organic solvent or mixture, thermodynamic from solid, Acetonitrile (ACN), 50° C., read-out: Solubility
  solubility: < 5000 µg/mL
[3]; organic solvent or mixture, thermodynamic from solid, Dichloromethane (DCM), 25° C., read-out: Solubility
  solubility: < 5000 µg/mL
[3]; organic solvent or mixture, thermodynamic from solid, Dimethylsulfoxide (DMSO), 25° C., read-out: Solubility
  solubility: > 100000 µg/mL
[3]; organic solvent or mixture, thermodynamic from solid, Ethyl acetate (EtOAc), 25° C., read-out: Solubility
  solubility: < 5000 µg/mL
[3]; organic solvent or mixture, thermodynamic from solid, Ethyl acetate (EtOAc), 50° C., read-out: Solubility
  solubility: < 5000 µg/mL
[3]; organic solvent or mixture, thermodynamic from solid, Ethyl alcohol (EtOH), 25° C., read-out: Solubility
  solubility: < 5000 µg/mL
[3]; organic solvent or mixture, thermodynamic from solid, Ethyl alcohol (EtOH), 50° C., read-out: Solubility
  solubility: < 5000 µg/mL
[3]; organic solvent or mixture, thermodynamic from solid, Heptane, 25° C., read-out: Solubility
  solubility: < 5000 µg/mL
[3]; organic solvent or mixture, thermodynamic from solid, Heptane, 50° C., read-out: Solubility
  solubility: < 5000 µg/mL
[3]; organic solvent or mixture, thermodynamic from solid, Isopropyl acetate (IPAc), 25° C., read-out: Solubility
  solubility: < 5000 µg/mL
[3]; organic solvent or mixture, thermodynamic from solid, Isopropyl acetate (IPAc), 50° C., read-out: Solubility
  solubility: < 5000 µg/mL
[3]; organic solvent or mixture, thermodynamic from solid, Methanol (MeOH), 25° C., read-out: Solubility
  solubility: < 5000 µg/mL
[3]; organic solvent or mixture, thermodynamic from solid, Methanol (MeOH), 50° C., read-out: Solubility
  solubility: 5000 to 7000 µg/mL (≈ 15.3 to 21.4 mM)
[3]; organic solvent or mixture, thermodynamic from solid, Methyl ethyl ketone (MEK), 25° C., read-out: Solubility
  solubility: < 5000 µg/mL
[3]; organic solvent or mixture, thermodynamic from solid, Methyl ethyl ketone (MEK), 50° C., read-out: Solubility
  solubility: < 5000 µg/mL
[3]; organic solvent or mixture, thermodynamic from solid, Methyl isobutyl ketone (MIBK), 25° C., read-out: Solubility
  solubility: < 5000 µg/mL
[3]; organic solvent or mixture, thermodynamic from solid, Methyl isobutyl ketone (MIBK), 50° C., read-out: Solubility
  solubility: < 5000 µg/mL
[3]; organic solvent or mixture, thermodynamic from solid, Methyl tert-butyl ether (MtBE), 25° C., read-out: Solubility
  solubility: < 5000 µg/mL
[3]; organic solvent or mixture, thermodynamic from solid, Methyl tert-butyl ether (MtBE), 50° C., read-out: Solubility
  solubility: < 5000 µg/mL
[3]; organic solvent or mixture, thermodynamic from solid, N,N-Dimethylformamide (DMF), 25° C., read-out: Solubility
  solubility: 67000 to 100000 µg/mL (≈ 205 to 305 mM)
[3]; organic solvent or mixture, thermodynamic from solid, N,N-Dimethylformamide (DMF), 50° C., read-out: Solubility
  solubility: > 100000 µg/mL
[3]; organic solvent or mixture, thermodynamic from solid, Tetrahydrofuran (THF), 25° C., read-out: Solubility
  solubility: 8000 to 10000 µg/mL (≈ 24.4 to 30.5 mM)
[3]; organic solvent or mixture, thermodynamic from solid, Tetrahydrofuran (THF), 50° C., read-out: Solubility
  solubility: 9000 to 13000 µg/mL (≈ 27.5 to 39.7 mM)
[3]; organic solvent or mixture, thermodynamic from solid, Toluene, 25° C., read-out: Solubility
  solubility: < 5000 µg/mL
[3]; organic solvent or mixture, thermodynamic from solid, Toluene, 50° C., read-out: Solubility
  solubility: < 5000 µg/mL
[3]; thermodynamic from solid, Water, 25° C., read-out: Solubility
  solubility: < 5000 µg/mL
[3]; thermodynamic from solid, Water, 50° C., read-out: Solubility
  solubility: < 5000 µg/mL

From patent publication US12304905B2, “Pharmaceutical salts of benzothiazol compounds, polymorphs and methods for preparation thereof” (priority 2019, dated 2025)
